In ChEMBL document CHEMBL2346501, “Synthesis and evaluation of coumarin derivatives as potential dual-action HIV-1 protease and reverse transcriptase inhibitors” (Bioorg Med Chem, 2013) one finds IC50 and inhibition data, which are given here for eleven molecules.

The target in assay [1] is Human immunodeficiency virus type 1 reverse transcriptase (Human immunodeficiency virus 1, UniProt Q72547). In words: Inhibition of HIV1 reverse transcriptase.
Another assay addresses Protease (Human immunodeficiency virus 1, UniProt Q9YQ12). The assay can be described thus: Inhibition of HIV1 protease.
The target of assay [2] is Protease (Human immunodeficiency virus 1) (UniProt Q9YQ12). In words: Inhibition of HIV1 protease at 50 uM relative to control.
Protease (Human immunodeficiency virus 1), sequence (Q9YQ12 as listed by the source): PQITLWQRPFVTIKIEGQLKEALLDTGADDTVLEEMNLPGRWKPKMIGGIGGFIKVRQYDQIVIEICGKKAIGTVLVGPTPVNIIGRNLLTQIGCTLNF
The target in assay [3] is Human immunodeficiency virus type 1 reverse transcriptase (Human immunodeficiency virus 1) (UniProt Q72547). In words: Inhibition of HIV1 reverse transcriptase at 50 uM relative to control.

Protease, sequence (Q9YQ12 whole entry): as the sequence (Q9YQ12 as listed by the source) above

Usually IC50 stands for the point on the concentration scale where inhibition reaches its midpoint. Low readings indicate greater potency, high ones weaker potency. As a reminder, the inhibition is the relative decrease from the control value, in per cent. Low values mean a response near the control, high ones a response far below the control. Regarding `CCOc1cccc2cc(CNCc3cn([C@H]4C[C@H](n5cc(C)c(=O)[nH]c5=O)O[C@@H]4CO)nn3)c(=O)oc12`, the IC50 is 114 µM in assay [1] and 23.3 µM at Protease. In addition, the inhibition turned out to be 62% in assay [2] and 21% in assay [3].
The like results for `Cc1cn([C@H]2C[C@H](n3cc(CNCC(=O)N(Cc4ccccc4)Cc4cc5ccccc5oc4=O)nn3)[C@@H](CO)O2)c(=O)[nH]c1=O` were, in that order, 3.4 µM, 35.1 µM, 52% and 96%.
The like results for `COc1cccc2cc(CNCc3cn([C@H]4C[C@H](n5cc(C)c(=O)[nH]c5=O)O[C@@H]4CO)nn3)c(=O)oc12` were, in that order, 106 µM, 21.6 µM, 64% and 29%.
Consider `Cc1cn([C@H]2C[C@H](n3cc(CNCC(=O)N(Cc4ccccc4)Cc4cc5cc(Cl)ccc5oc4=O)nn3)[C@@H](CO)O2)c(=O)[nH]c1=O`, for which the results for the IC50 (in assay [1]; on Protease) were 3.69 µM and 29.5 µM, respectively. The inhibition in assay [2] came to 58%; in assay [3], 99%.
The like results for `COc1cccc2cc(CN(Cc3ccccc3)C(=O)CNCc3cn([C@H]4C[C@H](n5cc(C)c(=O)[nH]c5=O)O[C@@H]4CO)nn3)c(=O)oc12` were, in that order, 2.88 µM, 22.7 µM, 60% and 97%.
As to `Cc1cn([C@H]2C[C@H](n3cc(CNCc4cc5cc(Br)ccc5oc4=O)nn3)[C@@H](CO)O2)c(=O)[nH]c1=O`, the IC50 stood at 6.1 µM in assay [1] and 28.9 µM at Protease. The inhibition was determined as 57% in assay [2] and 94% in assay [3].
The like results for `Cc1cn([C@H]2C[C@H](n3cc(CNCc4cc5ccccc5oc4=O)nn3)[C@@H](CO)O2)c(=O)[nH]c1=O` were, in that order, 5.59 µM, 27.1 µM, 61% and 92%.
With `Cc1cn([C@H]2C[C@H](n3cc(CNCc4cc5cc(Cl)ccc5oc4=O)nn3)[C@@H](CO)O2)c(=O)[nH]c1=O`, the values for the IC50 (in assay [1]; against Protease) were 102 µM and 24.8 µM, respectively. The inhibition stood at 56% in assay [2] and 24% in assay [3].
The like results for `CCOc1cccc2cc(CN(Cc3ccccc3)C(=O)CNCc3cn([C@H]4C[C@H](n5cc(C)c(=O)[nH]c5=O)O[C@@H]4CO)nn3)c(=O)oc12` were, in that order, 2.86 µM, 27.3 µM, 58% and 97%.
As for `Cc1cn([C@H]2C[C@H](n3cc(CNCC(=O)N(Cc4ccccc4)Cc4cc5cc(Br)ccc5oc4=O)nn3)[C@@H](CO)O2)c(=O)[nH]c1=O`, the IC50 stood at 4.24 µM in assay [1] and 32 µM on Protease. Also, the inhibition in assay [2] came to 52%; in assay [3] it was 94%.
With `CC(C)c1nc(CN(C)C(=O)N[C@H](C(=O)N[C@@H](Cc2ccccc2)C[C@H](O)[C@H](Cc2ccccc2)NC(=O)OCc2cncs2)C(C)C)cs1`, in assay [2], the inhibition worked out at 72%.
